Measured values reported in patent publication US20150147792A1, “Betaine Enhancement of Fermentation to make C4 Diacids” (ARCHER DANIELS MIDLAND COMPANY, priority 2012, published 2015).

Experiments:
[1] = system: A. succinogenes strain FZ45 830.60; test: Production fermentation of dextrose to succinic acid, strain FZ45 830.60; assay type: cell-based, Actinobacillus succinogenes
Text: In a medium containing 90-155 g/l of dextrose as the primary carbon source supplemented with 15 g/liter of a commercial yeast extract (TASTONE™ 900AG from Sensient, Milwaukee, Wis.) the 830.60 strain was capable of producing a titer of 100 g/l of succinic acid with a 85-90% yield from dextrose at a productivity rate of 2 To 3 g/liter/hour.
For the present work, a variety of media alterations were tried in an attempt to substitute the commercial yeast extract with corn steep liquor and/or with a locally produced homogenized yeast extract made by homogenizing aerobically grown yeast produced incident to ethanol fermentation, and/or by supplementing the media with betaine and/or glutamate. To distinguish commercial yeast extract, which is available from distributors a dry powder, from a homogenate of yeast cells made locally by rupturing yeast cells in liquid suspension, the latter is referred to herein as “local yeast homogenate”
Corn steep liquor (CSL) was used as the target nutrient source to substitute for yeast extract. CSL is a by-product of wet corn milling obtained by steeping corn grain in water containing a small amount of a sulfide compound for several hours. CSL is rich in low molecular weight organic acids, some carbohydrates, vitamins and minerals that are released from the corn grain. The amount of CSL and local yeast homogenate is shown in terms of dry solids basis (dsb) meaning the amount of material added excluding water weight, per liter of fermentation. Glutamate was added in the form of monosodium glutamate (MSG) and betaine was added in the form of the anhydrous base in the amounts shown. Dextrose was present at between 90 and 125 g/l in all starting media.
Local yeast homogenate was obtained by aerobically growing an ethanol producing strain of the bakers yeast S. cerevesiae on dextrose until the culture reached stationary phase, recovering the yeast cells as paste, and homogenizing the yeast paste with an APV Gaulin French press type homogenizer at a pressures of 12,500 psi or greater. The glutamic acid was added in the form of monosodium glutamate, and the betaine was betaine base anhydrous from MP Biomedicals
Inoculum Medium A. succinogenes strain FZ45830,60, provided by MBI International, was grown in two 100 ml serum bottles each containing 50 ml of inoculum medium incubated at 38° C. for 15-24 hours by shaking in a rotary incubator at 180 rpm, which was then used as 5% vol/vol inoculum for final fermenter volume of 2.0 liters in a 7.5 lite fermenter. The inoculum medium was prepared in two steps. In the first step, 4 g of MgCO3 was weighed into a 100 ml Wheaton serum bottle containing 30 ml of distilled water, which was then sealed, autoclaved and cooled. In the second step the remaining ingredients, which were prepared as supplemental sterilized solutions, were added to the serum bottle with a sterile syringe. The supplemental solutions and formulation of the inoculum media are shown below.
The serum bottle was inoculated with 1.5 ml of an overnight culture grown in the same medium. The serum bottle was flushed and overlaid with CO2 before incubation
Seed Medium A New Brunswick EPPENDORF BiOFLO 310-7.5 liter fermenter was inoculated with the 2 serum bottles containing the inoculation culture for initial production fermentation studies or as a seed culture for larger scale fermentations. The operating conditions are listed below:
The seed medium contained 4 g/l CSL dsb, 14 g/l TASTONE 900AG yeast extract, 0.0002 g/l biotin, 10 ml/l 0.5M sodium phosphate buffer and 100 g/l dextrose. The pH was adjusted with a 35% Mg(OH)2 slurry. The seed fermenter was inoculated at 5% v/v from the incubated serum bottle culture and was harvested in the early log phase (e.g., an increase in OD of 3 to 4 units) other measure of early log phase?) Two hundred ml of the seed culture was used to inoculate 4 liters of media in a second 7.5 liter production fermenter. […]

[2] = system: Actinobacillus Succinogenes; details: osmoprotectant added to media; cited from earlier work

Which “effect on yield from glucose” value ([1]; betaine provided as sole non-nutrative supplement) does the source give for `O=C(O)CCCC[C@@H]1SC[C@@H]2NC(=O)N[C@@H]21` [biotin] here?
The value was “did not statistically increase the yield from glucose”.

Which increase in productivity [2] does the source give for `O=C(O)[C@@H]1CCCN1` [proline] here?
Its increase in productivity is 22%.

Which results are given for `C[N+](C)(C)CC(=O)O` [betaine, N,N,N-trimethylglycine]?
succinic acid produced ([1]; betaine 0.1 to 1 g/liter): 70 to 115 g/L; succinic acid produced, concentration ([1]; betaine 0.1 to 1 g/liter): 590 to 980 mM; productivity rate ([1]; betaine 1 g/liter, Table 1): 2.4-2.9 g per liter per hour; titer ([1]; betaine 1 g/liter, Table 1): 90 to 104 g/L; yield from glucose ([1]; betaine 1 g/liter, Table 1): about 85%
